# From patent publication US20100323033A1, “CANCER SENSITIZER COMPRISING CHLOROGENIC ACID” (priority 2007, published 2010)
# Test system: Human pancreatic carcinoma cell line AsPC-1 (doxorubicin resistant)
# Experiment: XTT assay of anticancer agent sensitivity in doxorubicin-resistant AsPC-1 cells
# Assay type: cell-based
# Settings: 48 hrs, FIG. 1
# Experimental: Human pancreatic carcinoma cell line AsPC-1 (doxorubicin resistant) was purchased from ATCC (American Type Culture Collection, Manassas, Va., USA). AsPC-1 cell lines were maintained in media supplemented with 10% fetal bovine serum (Gibco BRL) at 37° C. in a humid 5% CO2 atmosphere, and subcultured every two or three days. XTT assay was conducted to examine whether chlorogenic acid increases the anticancer agent sensitivity. A modified MTT assay, XTT assay is a colorimetric method that determines the relative number of living cells, after treating cells with a compound degraded by a specific enzyme. AsPC-1 cells were seeded in 96-well plates (2×10^4 per well), and cultured for 24 hrs. The cells were treated with 0, 5, and 10 μM of doxorubicin, and 0, 5, 10, and […] of chlorogenic acid, and incubated for 48 hrs. 0.1 ml of active solution and 5 ml of XTT (2,3-Bis{2-methoxy-4-nitro-5[(sulfenylamino) carbonyl]-2H-tetrazolium-hydroxide}) were added to the 96-well plates, and 50 μl of reaction solution was added to each well, followed by incubation for 2 hrs. The plates were gently shaken for staining, and the absorbance was measured at 450 nm using a VERSAmax220 Automatic Microplate Reader (Molecular Devices Corp.).
smiles,measurement,setting,value
"O=C(/C=C/c1ccc(O)c(O)c1)O[C@@H]1C[C@](O)(C(=O)O)C[C@@H](O)[C@H]1O [chlorogenic acid, 3-[[3-(3,4-dihydroxyphenyl)-1-oxo-2-propenyl]oxy]-1,4,5-trihydroxycyclohexanecarboxylic acid]",dependence of cancer cell viability on chlorogenic acid concentration,combination with doxorubicin,"decreased, as the concentration of chlorogenic acid was increased"
same,"decrease of viability of cancer cells with chlorogenic acid plus anticancer agent, compared to anticancer agent alone","doxorubicin 0, 5, 10 μM with chlorogenic acid 0, 5, 10, 20μ, absorbance 450 nm",30%
